# Active and inactive are the calls of the source. The rule behind the calls is not given here.
# Legend:
# [1] = target: Toll-like receptor 2 (Homo sapiens) (UniProt O60603); test: Antagonist activity at human TLR2 expressed in HEK293 cells co-transfected with MD2 and sAP assessed as inhibition of NF-kappaB activity by reporter gene assay; assay type: cell-based
# [2] = target: T1, Toll-like receptor 9 (Homo sapiens) (UniProt Q9NR96); test: Antagonist activity at human TLR9 expressed in HEK293 cells co-transfected with MD2 and sAP assessed as inhibition of NF-kappaB activity by reporter gene assay; assay type: cell-based
# T1 sequence (whole entry): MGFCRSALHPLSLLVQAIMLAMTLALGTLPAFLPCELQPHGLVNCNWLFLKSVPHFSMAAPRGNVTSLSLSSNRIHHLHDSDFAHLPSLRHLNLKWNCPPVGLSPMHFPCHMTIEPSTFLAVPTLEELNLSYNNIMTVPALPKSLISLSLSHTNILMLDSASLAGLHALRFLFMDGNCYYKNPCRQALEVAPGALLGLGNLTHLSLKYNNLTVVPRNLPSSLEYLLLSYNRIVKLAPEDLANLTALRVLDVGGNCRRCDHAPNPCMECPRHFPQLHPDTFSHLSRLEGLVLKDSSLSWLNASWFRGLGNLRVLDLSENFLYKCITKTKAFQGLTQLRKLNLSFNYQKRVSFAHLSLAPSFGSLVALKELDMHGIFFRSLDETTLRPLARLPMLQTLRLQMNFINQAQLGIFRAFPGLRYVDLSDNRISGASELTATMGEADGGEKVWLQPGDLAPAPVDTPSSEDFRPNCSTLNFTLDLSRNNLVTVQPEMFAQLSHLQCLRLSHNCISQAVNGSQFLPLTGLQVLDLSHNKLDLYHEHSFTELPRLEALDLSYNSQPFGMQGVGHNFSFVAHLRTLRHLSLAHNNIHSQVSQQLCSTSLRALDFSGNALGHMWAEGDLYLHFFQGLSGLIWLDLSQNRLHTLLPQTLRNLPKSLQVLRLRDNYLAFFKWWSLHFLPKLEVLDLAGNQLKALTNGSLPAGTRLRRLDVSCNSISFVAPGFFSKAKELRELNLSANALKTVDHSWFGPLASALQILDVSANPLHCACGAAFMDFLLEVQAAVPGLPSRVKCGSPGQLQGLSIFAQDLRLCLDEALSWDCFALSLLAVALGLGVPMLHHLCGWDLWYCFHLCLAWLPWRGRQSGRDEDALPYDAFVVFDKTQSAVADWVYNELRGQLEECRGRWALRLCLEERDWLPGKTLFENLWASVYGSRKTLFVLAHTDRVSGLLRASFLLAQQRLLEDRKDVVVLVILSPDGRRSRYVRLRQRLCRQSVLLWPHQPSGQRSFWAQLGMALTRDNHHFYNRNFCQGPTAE
# [3] = target: T2, Toll-like receptor 8 (Homo sapiens) (UniProt Q9NR97); test: Antagonist activity at human TLR8 expressed in HEK293 cells co-transfected with MD2 and sAP assessed as inhibition of NF-kappaB activity by reporter gene assay; assay type: cell-based
# T2 sequence (whole entry): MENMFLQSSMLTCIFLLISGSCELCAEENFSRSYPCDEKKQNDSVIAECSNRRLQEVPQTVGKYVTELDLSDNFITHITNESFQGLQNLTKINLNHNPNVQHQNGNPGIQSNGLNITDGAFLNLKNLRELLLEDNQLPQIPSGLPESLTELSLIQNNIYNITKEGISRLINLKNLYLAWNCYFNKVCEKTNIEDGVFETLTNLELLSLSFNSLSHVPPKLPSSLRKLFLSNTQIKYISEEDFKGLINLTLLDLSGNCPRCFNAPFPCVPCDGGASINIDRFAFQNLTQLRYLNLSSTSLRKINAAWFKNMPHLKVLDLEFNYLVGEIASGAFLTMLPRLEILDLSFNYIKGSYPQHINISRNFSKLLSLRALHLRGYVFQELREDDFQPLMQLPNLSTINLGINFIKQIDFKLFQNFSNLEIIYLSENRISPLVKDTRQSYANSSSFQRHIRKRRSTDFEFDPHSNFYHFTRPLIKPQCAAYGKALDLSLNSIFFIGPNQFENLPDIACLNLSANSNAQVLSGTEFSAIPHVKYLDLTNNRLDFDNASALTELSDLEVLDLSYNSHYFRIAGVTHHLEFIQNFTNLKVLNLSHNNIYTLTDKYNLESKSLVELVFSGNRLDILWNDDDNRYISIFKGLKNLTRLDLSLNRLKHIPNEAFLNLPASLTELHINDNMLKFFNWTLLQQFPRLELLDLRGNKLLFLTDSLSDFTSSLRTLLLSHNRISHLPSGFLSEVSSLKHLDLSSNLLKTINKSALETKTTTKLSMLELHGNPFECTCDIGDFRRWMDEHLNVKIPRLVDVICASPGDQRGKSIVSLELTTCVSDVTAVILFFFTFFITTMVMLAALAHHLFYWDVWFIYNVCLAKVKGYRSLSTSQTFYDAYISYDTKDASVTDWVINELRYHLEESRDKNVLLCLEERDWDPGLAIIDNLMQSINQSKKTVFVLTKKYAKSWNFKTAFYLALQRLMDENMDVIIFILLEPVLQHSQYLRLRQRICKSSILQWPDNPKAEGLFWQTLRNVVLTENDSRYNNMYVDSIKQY
# [4] = target: Nucleotide-binding oligomerization domain-containing protein 2 (Homo sapiens) (UniProt Q9HC29); test: Antagonist activity at NOD2 (unknown origin)
# Sequence of Nucleotide-binding oligomerization domain-containing protein 2 (Homo sapiens) (Q9HC29 whole entry, the tested form may be a part): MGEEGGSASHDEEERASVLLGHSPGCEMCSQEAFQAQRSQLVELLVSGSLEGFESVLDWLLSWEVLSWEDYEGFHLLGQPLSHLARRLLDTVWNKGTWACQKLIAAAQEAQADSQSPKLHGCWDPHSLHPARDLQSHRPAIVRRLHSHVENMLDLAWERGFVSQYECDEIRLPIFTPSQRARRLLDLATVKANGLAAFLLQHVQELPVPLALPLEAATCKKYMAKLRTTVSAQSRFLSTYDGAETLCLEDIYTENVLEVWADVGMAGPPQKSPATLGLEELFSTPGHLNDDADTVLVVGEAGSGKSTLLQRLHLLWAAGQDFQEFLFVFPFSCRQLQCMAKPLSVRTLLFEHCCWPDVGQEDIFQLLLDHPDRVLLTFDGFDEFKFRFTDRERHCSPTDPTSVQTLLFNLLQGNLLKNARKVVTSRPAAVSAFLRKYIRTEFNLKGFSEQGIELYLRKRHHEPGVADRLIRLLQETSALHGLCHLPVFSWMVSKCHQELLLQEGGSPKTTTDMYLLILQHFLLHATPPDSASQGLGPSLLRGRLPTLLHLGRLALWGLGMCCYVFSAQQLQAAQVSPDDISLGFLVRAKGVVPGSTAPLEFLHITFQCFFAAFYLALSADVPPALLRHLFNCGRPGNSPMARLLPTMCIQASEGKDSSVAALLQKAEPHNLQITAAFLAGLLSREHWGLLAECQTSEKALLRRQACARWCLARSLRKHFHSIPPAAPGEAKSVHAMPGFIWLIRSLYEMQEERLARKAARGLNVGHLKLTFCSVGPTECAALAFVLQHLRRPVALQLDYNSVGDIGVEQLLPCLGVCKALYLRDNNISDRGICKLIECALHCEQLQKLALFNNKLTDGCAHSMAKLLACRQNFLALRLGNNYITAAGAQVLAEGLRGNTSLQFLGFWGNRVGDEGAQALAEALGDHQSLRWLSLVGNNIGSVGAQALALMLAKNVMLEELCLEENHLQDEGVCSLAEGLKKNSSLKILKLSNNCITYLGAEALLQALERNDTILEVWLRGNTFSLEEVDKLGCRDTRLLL
# Sequence of Toll-like receptor 2 (Homo sapiens) (O60603 whole entry): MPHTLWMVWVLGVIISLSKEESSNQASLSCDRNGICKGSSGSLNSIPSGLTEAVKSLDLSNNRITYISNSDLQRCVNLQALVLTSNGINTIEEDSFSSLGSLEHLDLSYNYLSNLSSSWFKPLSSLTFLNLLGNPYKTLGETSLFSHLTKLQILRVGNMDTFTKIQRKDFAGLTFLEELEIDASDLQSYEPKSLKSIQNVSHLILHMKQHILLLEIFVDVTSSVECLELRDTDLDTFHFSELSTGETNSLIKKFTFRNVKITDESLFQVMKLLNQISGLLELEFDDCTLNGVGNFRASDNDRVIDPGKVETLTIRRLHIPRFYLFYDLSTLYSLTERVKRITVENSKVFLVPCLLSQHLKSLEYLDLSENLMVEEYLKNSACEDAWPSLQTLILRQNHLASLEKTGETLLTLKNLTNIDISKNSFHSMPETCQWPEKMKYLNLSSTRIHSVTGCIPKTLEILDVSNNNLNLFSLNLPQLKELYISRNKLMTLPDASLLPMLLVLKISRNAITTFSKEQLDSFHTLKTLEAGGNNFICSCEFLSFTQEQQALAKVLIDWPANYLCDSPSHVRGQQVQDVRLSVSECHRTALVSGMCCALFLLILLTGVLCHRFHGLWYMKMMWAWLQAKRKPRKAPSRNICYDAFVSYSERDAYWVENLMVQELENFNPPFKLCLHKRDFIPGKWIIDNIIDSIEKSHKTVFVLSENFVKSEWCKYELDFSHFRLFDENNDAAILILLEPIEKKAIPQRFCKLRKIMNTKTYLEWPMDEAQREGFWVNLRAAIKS
inhibition [1],inhibition [2],inhibition [3],inhibition [4],SMILES
inactive,inactive,inactive,inactive,CCCc1cc2c(N)nc3ccccc3c2o1
inactive,inactive,inactive,inactive,Nc1nc2ccccc2c2oc(-c3ccccc3)cc12
inactive,inactive,inactive,inactive,CCCCc1cc2c(nc(N)c3ccccc32)o1
inactive,inactive,inactive,inactive,CCCCc1cc2c(N)nc3ccccc3c2o1

# Reference: ChEMBL document CHEMBL2417394, “Exquisite selectivity for human toll-like receptor 8 in substituted furo[2,3-c]quinolines” (J Med Chem, 2013)
